Like-named read-outs stand apart in the source and are kept apart here.
Tests used:
[1] = target: PI3Kδ (His-PIK3CD/PIK3R1, p110 delta/p85 alpha) (Homo sapiens (Human), UniProt O00329); assay: PI3Kδ biochemical assay (HTRF/FRET probe); assay type: binding; conditions: class symbol
Protocol: Phosphoinositide 3-kinase (PI3K) Biochemical Assay: A solution was prepared containing 0.2 nM Anti-HIS-Terbium (Cisbio, 64CUSTAZU), 40 nM designed-probe and 1.0 nM His-PIK3CD/PIK3R1 (p110 delta/p85 alpha) in FRET Buffer (20 mM HEPES, 10 mM MgCl2, 0.015% Brij-35, 4 mM DTT, 0.05 mg/mL BSA).

[2] = target: PI3Kα (His-PIK3CA/PIK3R1, p110 alpha/p85 alpha) (Homo sapiens (Human), UniProt P42336); assay: PI3Kα biochemical assay (HTRF/FRET probe); assay type: binding; conditions: class symbol
Protocol: Phosphoinositide 3-kinase α (PI3Kα) Biochemical Assay: A solution was prepared containing 0.2 nM Anti-HIS-Terbium (Cisbio, 64CUSTAZU), 3.7 nM designed-probe and 1.0 nM His-PIK3CA/PIK3R1 (p110 alpha/p85 alpha) in FRET Buffer (20 mM HEPES, 10 mM MgCl2, 0.015% Brij-35, 4 mM DTT, 0.05 mg/mL BSA).

DNA-PK = DNA-PK (Homo sapiens (Human), UniProt P78527); assay: DNA-PK biochemical assay (Reaction Biology HotSpot kinase assay, 10 μM ATP)
Protocol: DNA-PK Biochemical Assay Using Reaction Biology's HotSpot Kinase Assay Protocol:
Reagent: Base Reaction buffer; 20 mM Hepes (pH 7.5), 10 mM MgCl2, 1 mM EGTA, 0.01% Brij35, 0.02 mg/ml BSA, 0.1 mM Na3VO4, 2 mM DTT, 1% DMSO Required cofactors are added individually to each kinase reaction.
Reaction Procedure: 1. Prepare substrate in freshly prepared Reaction Buffer; 2. Deliver any required cofactors to the substrate solution above; 3. Deliver kinase into the substrate solution and gently mix; 4. Deliver compounds in 100% DMSO into the kinase reaction mixture by Acoustic technology (Echo550; nanoliter range), incubate for 20 min at room temperature; 5. Deliver 33P-ATP into the reaction mixture to initiate the reaction; 6. Incubate for 2 hours at room temperature; 7. Detect kinase activity by P81 filter-binding method.

ATM = ATM (Homo sapiens (Human), UniProt Q13315); assay: ATM biochemical assay (Reaction Biology HTRF kinase assay, 10 μM ATP)
Protocol: Ataxia-Telangiectasia Mutated (ATM) Biochemical Assay Using Reaction Biology's HTRF Kinase Assay Protocol:
The assay detects kinase activity by antibody based HTRF assay. The GST-tagged p53 protein serves as substrate and Eu-labeled-antibody with specific phosphorylation site binds upon phosphorylation which is monitored by HTRF from the anti-GST-d2.
Reagent: Reaction buffer; 50 mM Hepes (pH 7.5), 150 mM NaCl, 10 mM MnCl2, 1% Glycerol, 0.01% Brij35, 1 mM DTT, 1% DMSO.
Substrate: Human p53 (aa2-393), RBC produced in E. coli, N-terminal GST-Tag, MW=70.42 kDa.
Detection; MAb Anti-p53-pS15-Eu cryptate, CisBio cat #61P08KAZ; MAb Anti GST-d2
Reaction Procedure: 1. Deliver 2× Enzyme in wells of reaction plate except No E control wells. Add buffer instead; 2. Deliver compounds in 100% DMSO into the kinase reaction mixture by Acoustic technology (Echo550; nanoliter range), incubate for 30 min at room temperature; 3. Deliver 2× substrate+ATP mixture into the reaction mixture to initiate the reaction; 4. Incubate for 2 hours at room temperature.
HTRF Detection: 1. Deliver 2× Stop/Detection mixture and incubate for 2 hours to overnight in the dark. 2. HTRF measurement (Ex/Em1/Em2=320/615/665 nm) in EnVision.

[3] = read-out: DNA-PK HotSpot 10 μM ATP IC50, class symbol
[4] = read-out: ATM HTRF 10 μM ATP IC50, class symbol

PI3Kδ (His-PIK3CD/PIK3R1, p110 delta/p85 alpha), sequence (O00329 whole entry, species assumed): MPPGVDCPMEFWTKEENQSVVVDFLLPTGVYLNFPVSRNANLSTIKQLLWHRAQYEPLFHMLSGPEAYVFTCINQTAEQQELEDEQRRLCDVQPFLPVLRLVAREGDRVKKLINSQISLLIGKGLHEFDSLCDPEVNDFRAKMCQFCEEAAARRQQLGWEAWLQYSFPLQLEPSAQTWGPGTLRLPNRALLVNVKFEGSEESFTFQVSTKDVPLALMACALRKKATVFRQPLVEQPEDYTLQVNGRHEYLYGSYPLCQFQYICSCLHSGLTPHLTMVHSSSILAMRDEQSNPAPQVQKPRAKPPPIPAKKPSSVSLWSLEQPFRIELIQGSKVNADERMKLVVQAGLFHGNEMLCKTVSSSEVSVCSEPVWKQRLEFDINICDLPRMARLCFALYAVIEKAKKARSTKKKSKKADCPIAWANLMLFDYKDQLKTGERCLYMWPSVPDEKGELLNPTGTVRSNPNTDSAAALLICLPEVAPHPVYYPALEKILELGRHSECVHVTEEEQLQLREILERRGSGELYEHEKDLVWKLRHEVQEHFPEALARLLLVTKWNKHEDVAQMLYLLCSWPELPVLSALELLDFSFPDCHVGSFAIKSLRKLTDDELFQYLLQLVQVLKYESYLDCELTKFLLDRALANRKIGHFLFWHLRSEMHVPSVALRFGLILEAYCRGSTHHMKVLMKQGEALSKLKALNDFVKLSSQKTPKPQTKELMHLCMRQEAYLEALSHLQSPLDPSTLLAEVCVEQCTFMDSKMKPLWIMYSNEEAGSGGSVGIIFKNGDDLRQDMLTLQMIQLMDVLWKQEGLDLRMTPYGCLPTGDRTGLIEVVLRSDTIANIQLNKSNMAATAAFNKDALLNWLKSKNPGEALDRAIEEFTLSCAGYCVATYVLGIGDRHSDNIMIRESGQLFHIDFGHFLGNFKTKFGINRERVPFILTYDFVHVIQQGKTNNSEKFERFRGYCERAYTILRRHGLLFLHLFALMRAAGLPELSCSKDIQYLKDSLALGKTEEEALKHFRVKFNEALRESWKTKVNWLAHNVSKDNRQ
PI3Kδ (His-PIK3CD/PIK3R1, p110 delta/p85 alpha), sequence (P27986 whole entry partner, species assumed): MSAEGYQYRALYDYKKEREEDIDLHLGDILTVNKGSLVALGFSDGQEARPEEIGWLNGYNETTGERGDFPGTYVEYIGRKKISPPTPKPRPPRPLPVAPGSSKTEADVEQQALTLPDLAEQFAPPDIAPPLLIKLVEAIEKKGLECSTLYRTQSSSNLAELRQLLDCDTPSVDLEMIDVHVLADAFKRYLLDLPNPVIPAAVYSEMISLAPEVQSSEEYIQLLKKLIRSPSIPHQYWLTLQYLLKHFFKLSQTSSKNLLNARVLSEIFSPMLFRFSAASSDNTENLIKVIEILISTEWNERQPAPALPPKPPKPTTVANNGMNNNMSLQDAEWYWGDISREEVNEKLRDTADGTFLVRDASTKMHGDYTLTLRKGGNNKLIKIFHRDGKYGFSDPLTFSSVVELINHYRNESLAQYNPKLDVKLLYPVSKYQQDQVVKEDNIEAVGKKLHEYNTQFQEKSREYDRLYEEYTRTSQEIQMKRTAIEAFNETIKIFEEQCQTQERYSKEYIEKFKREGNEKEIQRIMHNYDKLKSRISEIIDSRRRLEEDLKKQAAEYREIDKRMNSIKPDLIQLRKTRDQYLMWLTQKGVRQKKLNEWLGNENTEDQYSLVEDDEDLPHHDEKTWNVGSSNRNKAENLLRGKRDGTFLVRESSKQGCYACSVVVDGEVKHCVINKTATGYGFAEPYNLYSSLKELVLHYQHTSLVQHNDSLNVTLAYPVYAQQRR
ATM, sequence (Q13315 whole entry): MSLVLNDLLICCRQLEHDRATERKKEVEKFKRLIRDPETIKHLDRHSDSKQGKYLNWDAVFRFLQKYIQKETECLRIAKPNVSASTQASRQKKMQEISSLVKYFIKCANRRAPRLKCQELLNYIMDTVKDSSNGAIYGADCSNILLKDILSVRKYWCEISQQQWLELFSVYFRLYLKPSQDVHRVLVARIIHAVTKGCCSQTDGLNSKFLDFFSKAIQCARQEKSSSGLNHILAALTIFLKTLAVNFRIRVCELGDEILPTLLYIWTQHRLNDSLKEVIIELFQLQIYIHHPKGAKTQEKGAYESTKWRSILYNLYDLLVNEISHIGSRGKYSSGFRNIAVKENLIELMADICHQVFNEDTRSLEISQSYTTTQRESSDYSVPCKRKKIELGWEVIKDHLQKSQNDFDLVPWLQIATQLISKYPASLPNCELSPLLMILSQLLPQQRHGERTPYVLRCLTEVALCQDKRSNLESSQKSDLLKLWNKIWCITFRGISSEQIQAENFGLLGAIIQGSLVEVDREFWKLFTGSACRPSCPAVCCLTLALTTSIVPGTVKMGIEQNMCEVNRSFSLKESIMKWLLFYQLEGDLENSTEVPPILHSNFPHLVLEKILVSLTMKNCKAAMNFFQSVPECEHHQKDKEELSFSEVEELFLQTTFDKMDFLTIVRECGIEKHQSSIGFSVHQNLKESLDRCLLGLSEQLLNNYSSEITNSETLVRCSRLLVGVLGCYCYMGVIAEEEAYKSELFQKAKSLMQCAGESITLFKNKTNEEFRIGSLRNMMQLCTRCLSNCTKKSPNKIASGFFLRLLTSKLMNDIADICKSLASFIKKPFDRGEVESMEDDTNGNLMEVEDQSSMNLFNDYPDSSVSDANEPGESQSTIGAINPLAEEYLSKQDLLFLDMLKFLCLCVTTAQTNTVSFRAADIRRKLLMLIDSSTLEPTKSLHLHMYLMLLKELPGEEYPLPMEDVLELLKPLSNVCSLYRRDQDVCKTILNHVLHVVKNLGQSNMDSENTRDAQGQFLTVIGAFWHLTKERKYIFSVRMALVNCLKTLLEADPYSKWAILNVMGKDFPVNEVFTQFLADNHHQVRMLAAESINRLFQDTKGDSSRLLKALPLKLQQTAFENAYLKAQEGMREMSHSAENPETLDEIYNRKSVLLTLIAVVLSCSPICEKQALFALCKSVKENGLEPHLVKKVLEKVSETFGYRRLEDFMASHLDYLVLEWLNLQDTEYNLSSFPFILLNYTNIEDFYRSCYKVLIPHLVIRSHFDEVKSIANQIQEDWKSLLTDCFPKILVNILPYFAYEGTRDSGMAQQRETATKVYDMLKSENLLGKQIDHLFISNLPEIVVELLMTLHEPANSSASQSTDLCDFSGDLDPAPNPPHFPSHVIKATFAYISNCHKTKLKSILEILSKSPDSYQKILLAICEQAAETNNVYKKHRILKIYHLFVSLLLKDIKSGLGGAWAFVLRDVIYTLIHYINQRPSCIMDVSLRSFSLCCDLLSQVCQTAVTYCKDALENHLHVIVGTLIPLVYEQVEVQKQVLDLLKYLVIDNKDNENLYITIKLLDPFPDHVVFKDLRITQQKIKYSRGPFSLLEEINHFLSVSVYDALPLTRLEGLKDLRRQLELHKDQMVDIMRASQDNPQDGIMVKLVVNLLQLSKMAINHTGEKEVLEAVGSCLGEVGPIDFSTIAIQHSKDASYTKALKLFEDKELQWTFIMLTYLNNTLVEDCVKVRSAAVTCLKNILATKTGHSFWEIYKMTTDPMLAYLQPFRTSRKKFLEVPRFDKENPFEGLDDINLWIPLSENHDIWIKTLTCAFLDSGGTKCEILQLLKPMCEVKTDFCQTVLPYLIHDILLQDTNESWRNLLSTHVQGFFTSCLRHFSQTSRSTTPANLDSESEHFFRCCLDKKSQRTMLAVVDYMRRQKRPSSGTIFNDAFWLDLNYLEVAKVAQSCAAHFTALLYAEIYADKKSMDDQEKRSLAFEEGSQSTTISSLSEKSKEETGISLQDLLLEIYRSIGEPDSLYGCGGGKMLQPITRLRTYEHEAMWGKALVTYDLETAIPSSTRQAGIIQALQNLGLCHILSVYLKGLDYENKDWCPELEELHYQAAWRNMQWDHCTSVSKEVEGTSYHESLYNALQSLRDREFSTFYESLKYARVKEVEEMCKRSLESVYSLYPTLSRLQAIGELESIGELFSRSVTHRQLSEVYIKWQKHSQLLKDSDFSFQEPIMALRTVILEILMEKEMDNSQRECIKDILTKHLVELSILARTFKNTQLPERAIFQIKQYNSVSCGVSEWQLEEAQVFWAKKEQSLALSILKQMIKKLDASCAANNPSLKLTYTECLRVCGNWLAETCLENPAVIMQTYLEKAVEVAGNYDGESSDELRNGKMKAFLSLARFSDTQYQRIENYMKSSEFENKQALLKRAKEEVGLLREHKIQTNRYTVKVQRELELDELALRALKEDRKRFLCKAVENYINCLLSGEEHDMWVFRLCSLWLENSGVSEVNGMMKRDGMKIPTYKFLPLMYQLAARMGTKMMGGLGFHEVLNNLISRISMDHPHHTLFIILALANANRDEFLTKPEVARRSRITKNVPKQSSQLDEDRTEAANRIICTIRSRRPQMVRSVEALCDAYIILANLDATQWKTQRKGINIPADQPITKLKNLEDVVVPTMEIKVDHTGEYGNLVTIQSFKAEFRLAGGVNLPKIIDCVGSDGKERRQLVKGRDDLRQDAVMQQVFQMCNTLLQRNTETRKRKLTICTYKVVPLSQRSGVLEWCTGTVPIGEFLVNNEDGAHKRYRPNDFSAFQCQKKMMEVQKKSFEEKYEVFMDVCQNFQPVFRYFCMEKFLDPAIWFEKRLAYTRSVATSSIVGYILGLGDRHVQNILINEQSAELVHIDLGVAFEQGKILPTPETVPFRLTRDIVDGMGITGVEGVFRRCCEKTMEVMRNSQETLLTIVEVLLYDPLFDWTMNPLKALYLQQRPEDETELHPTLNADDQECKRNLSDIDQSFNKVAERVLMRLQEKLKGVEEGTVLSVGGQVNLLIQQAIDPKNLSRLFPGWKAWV

Row | Compound | IC50 [1] | IC50 [2] | IC50 (DNA-PK; [3]) | IC50 (ATM; class symbol) | IC50 (DNA-PK; class symbol) | IC50 (ATM; [4])
1 | Cc1cc2ncnn2cc1Nc1ncc2c(n1)N(C13CCC(O)(CC1)C3)C(=O)C21CC1 [Compound 66, 7′-(4-hydroxybicyclo[2.2.1]heptan-1-yl)-2′-((7-methyl-[1,2,4]triazolo[1,5-a]pyridin-6-yl)amino)spiro[cyclopropane-1,5′-pyrrolo[2,3-d]pyrimidin]-6′(7′H)-one] | 100 to 1000 nM | 10 to 100 nM | < 1 nM | 100 to 1000 nM |  | 
2 | Cc1cc2nccnc2cc1Nc1ncc2c(n1)n(C13CCC(O)(CC1)C3)c(=O)n2C [Compound 4, 9-(4-hydroxybicyclo[2.2.1]heptan-1-yl)-7-methyl-2-((7-methylquinoxalin-6-yl)amino)-7,9-dihydro-8H-purin-8-one] | 100 to 1000 nM | 100 to 1000 nM | < 1 nM | 10 to 100 nM |  | 
3 | Cc1cc2nccnc2cc1Nc1ncc2c(n1)n(C13CCC(O)(CC1)C3)c(=S)n2C [Compound 33, 9-(4-hydroxybicyclo[2.2.1]heptan-1-yl)-7-methyl-2-((7-methylquinoxalin-6-yl)amino)-7,9-dihydro-8H-purine-8-thione] | 10 to 100 nM | 100 to 1000 nM |  | 100 to 1000 nM | 1 to 10 nM | 
4 | Cc1cc2ncccc2cc1Nc1ncc2c(n1)N(C13CC(F)(C1)C3)CC(=O)N2C [Compound 57, 8-(3-fluorobicyclo[1.1.1]pentan-1-yl)-5-methyl-2-((7-methylquinolin-6-yl)amino)-7,8-dihydropteridin-6(5H)-one] | 100 to 1000 nM | 100 to 1000 nM |  | 10 to 100 nM | 1 to 10 nM | 
5 | Cc1cc2nccnc2cc1Nc1ncc2c(n1)N(C13CCC(O)(CC1)C3)C(=O)C21CC1 [Compound 67, 7′-(4-hydroxybicyclo[2.2.1]heptan-1-yl)-2′-((7-methylquinoxalin-6-yl)amino)spiro[cyclopropane-1,5′-pyrrolo[2,3-d]pyrimidin]-6′(7′H)-one] | 100 to 1000 nM | 10 to 100 nM | < 1 nM | 100 to 1000 nM |  | 
6 | Cc1cc2ncnn2cc1Nc1ncc2c(n1)n(C13CC(CC#N)(C1)C3)c(=O)n2C [Compound 22, 2-(3-(7-methyl-2-((7-methyl-[1,2,4]triazolo[1,5-a]pyridin-6-yl)amino)-8-oxo-7,8-dihydro-9H-purin-9-yl)bicyclo[1.1.1]pentan-1-yl)acetonitrile] | ≥ 1000 nM | 100 to 1000 nM |  | 1 to 10 nM | 1 to 10 nM | 
7 | Cc1cc2c(cc1Nc1ncc3c(n1)n(C14CC(CC#N)(C1)C4)c(=O)n3C)OCO2 [Compound 23, 2-(3-(7-methyl-2-((6-methylbenzo[d][1,3]dioxol-5-yl)amino)-8-oxo-7,8-dihydro-9H-purin-9-yl)bicyclo[1.1.1]pentan-1-yl)acetonitrile] | ≥ 1000 nM | 100 to 1000 nM |  | 10 to 100 nM | 1 to 10 nM | 
8 | Cc1cc2ncnn2cc1Nc1ncc2c(n1)N(C13CCC(O)(CC1)C3)CC(=O)N2C [Compound 51, 8-{4-Hydroxybicyclo[2.2.1]heptan-1-yl}-5-methyl-2-({7-methyl-[1,2,4]triazolo[1,5-a]pyridin-6-yl}amino)-5,6,7,8-tetrahydropteridin-6-one] | 100 to 1000 nM | 100 to 1000 nM |  | 100 to 1000 nM | 1 to 10 nM | 
9 | Cc1cc2nsnc2cc1Nc1ncc2c(n1)N(C13CCC(O)(CC1)C3)CC(=O)N2C [Compound 55, 8-{4-Hydroxybicyclo[2.2.1]heptan-1-yl}-5-methyl-2-[(6-methyl-2,1,3-benzothiadiazol-5-yl)amino]-5,6,7,8-tetrahydropteridin-6-one] | 100 to 1000 nM | 10 to 100 nM | < 1 nM | 1 to 10 nM |  | 
10 | COC12CCC(n3c(=O)n(C)c4cnc(Nc5cc6nccnc6cc5C)nc43)(CC1)C2 [Compound 9, 9-(4-methoxybicyclo[2.2.1]heptan-1-yl)-7-methyl-2-((7-methylquinoxalin-6-yl)amino)-7,9-dihydro-8H-purin-8-one] | 100 to 1000 nM | 10 to 100 nM | < 1 nM | 10 to 100 nM |  | 
11 | [2H]C([2H])([2H])n1c(=O)n(C23CCC(O)(CC2)C3)c2nc(Nc3cn4ncnc4cc3C)ncc21 [Compound 77, 9-(4-hydroxybicyclo[2.2.1]heptan-1-yl)-7-(methyl-d3)-2-((7-methyl-[1,2,4]triazolo[1,5-a]pyridin-6-yl)amino)-7,9-dihydro-8H-purin-8-one] | 100 to 1000 nM | 100 to 1000 nM | < 1 nM | 10 to 100 nM |  | 
12 | Cc1cc(-c2cnco2)c(F)cc1Nc1ncc2c(n1)n(C13CCC(O)(CC1)C3)c(=O)n2C [Compound 36, 2-((5-fluoro-2-methyl-4-(oxazol-5-yl)phenyl)amino)-9-(4-hydroxybicyclo[2.2.1]heptan-1-yl)-7-methyl-7,9-dihydro-8H-purin-8-one] | ≥ 1000 nM | 100 to 1000 nM | < 1 nM |  |  | < 1 nM
13 | COC12CCC(n3c(=O)n(C)c4cnc(Nc5cc(F)c(C(N)=O)cc5C)nc43)(C1)C2 [Compound 40, 2-fluoro-4-((9-(4-methoxybicyclo[2.1.1]hexan-1-yl)-7-methyl-8-oxo-8,9-dihydro-7H-purin-2-yl)amino)-5-methylbenzamide] | ≥ 1000 nM | 100 to 1000 nM |  | 100 to 1000 nM | 1 to 10 nM | 
14 | Cc1cc2nsnc2cc1Nc1ncc2c(n1)N(C13CC(F)(C1)C3)CC(=O)N2C [Compound 58, 8-(3-fluorobicyclo[1.1.1]pentan-1-yl)-5-methyl-2-((6-methylbenzo[c][1,2,5]thiadiazol-5-yl)amino)-7,8-dihydropteridin-6(5H)-one] |  | ≥ 1000 nM | < 1 nM | 100 to 1000 nM |  | 
15 | COC12CCC(n3c(=O)n(C)c4cnc(Nc5cc6c(cc5C)OCO6)nc43)(C1)C2 [Compound 28, 9-(4-methoxybicyclo[2.1.1]hexan-1-yl)-7-methyl-2-((6-methylbenzo[d][1,3]dioxol-5-yl)amino)-7,9-dihydro-8H-purin-8-one] | ≥ 1000 nM |  |  |  | 1 to 10 nM | ≥ 1000 nM
16 | Cc1cc2ncccc2cc1Nc1ncc2c(n1)N(C13CCC(O)(CC1)C3)CC(=O)N2C [Compound 53, 8-{4-Hydroxybicyclo[2.2.1]heptan-1-yl}-5-methyl-2-[(7-methylquinolin-6-yl)amino]-5,6,7,8-tetrahydropteridin-6-one] | 10 to 100 nM |  | < 1 nM | 10 to 100 nM |  | 
17 | Cc1cc2c(cc1Nc1ncc3c(n1)n(C14CCC(O)(CC1)C4)c(=S)n3C)OCO2 [Compound 32, 9-(4-hydroxybicyclo[2.2.1]heptan-1-yl)-7-methyl-2-((6-methylbenzo[d][1,3]dioxol-5-yl)amino)-7,9-dihydro-8H-purine-8-thione] |  | ≥ 1000 nM |  |  | 1 to 10 nM | ≥ 1000 nM
18 | Cc1cc(-c2cnn(C)c2)c(F)cc1Nc1ncc2c(n1)n(C13CC(F)(C1)C3)c(=O)n2C [Compound 38, 2-((5-fluoro-2-methyl-4-(1-methyl-1H-pyrazol-4-yl)phenyl)amino)-9-(3-fluorobicyclo[1.1.1]pentan-1-yl)-7-methyl-7,9-dihydro-8H-purin-8-one] | ≥ 1000 nM |  |  | 10 to 100 nM | 10 to 100 nM | 
19 | Cc1cc2nsnc2cc1Nc1ncc2c(n1)N(C13CCC(O)(CC1)C3)C(=O)C21CC1 [Compound 69, 7′-(4-hydroxybicyclo[2.2.1]heptan-1-yl)-2′-((6-methylbenzo[c][1,2,5]thiadiazol-5-yl)amino)spiro[cyclopropane-1,5′-pyrrolo[2,3-d]pyrimidin]-6′(7′H)-one] |  | 10 to 100 nM | < 1 nM | 10 to 100 nM |  | 
